The text below walks through data of PMC4427029 (Cell, 2015).

One experiment concerns AT1R. The conditions noted are these: cited from earlier work.
Experiment [1] has as its system AT1R single mutants. The experiment in a line: Ligand binding assays on AT1R single mutants, COS-1 cell membranes. The conditions noted are these: residues Tyr35, Trp84, Arg167 and Lys199.
Experiment [2] deals with T1, AT1R single mutants (Homo sapiens, UniProt P30556, P285A).
T1 sequence (P30556 1-359 P285A): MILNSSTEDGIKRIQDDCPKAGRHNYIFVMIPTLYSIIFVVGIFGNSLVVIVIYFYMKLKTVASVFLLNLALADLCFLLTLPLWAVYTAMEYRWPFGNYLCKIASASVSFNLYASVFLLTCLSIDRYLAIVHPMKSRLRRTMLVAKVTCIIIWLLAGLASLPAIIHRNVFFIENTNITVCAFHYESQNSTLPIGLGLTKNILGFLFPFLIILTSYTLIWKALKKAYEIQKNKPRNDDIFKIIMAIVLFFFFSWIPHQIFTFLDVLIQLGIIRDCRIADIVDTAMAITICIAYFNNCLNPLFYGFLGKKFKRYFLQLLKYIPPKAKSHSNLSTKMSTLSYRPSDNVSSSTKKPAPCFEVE
Described as above. The conditions noted are these: Pro285Ala mutant.

Read-outs that look alike come from different tables or passages of the source.

As for `CCOc1nc2cccc(C(=O)O)c2n1Cc1ccc(-c2ccccc2-c2nnn[nH]2)cc1` [candesartan], in the experiment on AT1R (ref Takezako et al., 2004), the “dissociation rate from AT1R” value is reported as “slow” and the mode of antagonism entry is listed as “insurmountable inverse agonist”. For the same compound, the “role of residues for binding (mutagenesis)” value in the experiment on AT1R single mutants [1] is reported as “critical”.
`CCCCc1ncc(/C=C(\Cc2cccs2)C(=O)O)n1Cc1ccc(C(=O)O)cc1` [eprosartan]: on AT1R single mutants [2], the “change of binding affinity at mutant” value is “strong decrease”.
As to `CCc1cc2c(c(CC)n1)CCC(=O)N2Cc1ccc(-c2ccccc2-c2nn[nH]n2)cc1` [ZD7155], the “potency and duration compared with losartan” value in the experiment with AT1R (ref Junggren et al., 1996) was “more potent and longer-lasting”.
On to `CCCCc1nc(Cl)c(CO)n1Cc1ccc(-c2ccccc2-c2nn[nH]n2)cc1` [Losartan, losartan], for which, in the experiment on AT1R (ref Miura et al., 2011), the “binding affinity to AT1R compared to the later developed ARBs” value is given as “lower” and the mode of antagonism result was “surmountable antagonist”.
For the compound [Sar^1, Ile^8]-AngII, the “role of residues for binding (mutagenesis)” value in the experiment with AT1R single mutants [1] was “critical”.
